Assay results: US12150998B2, “Bicyclic peptide ligands specific for P-selectin” (BicycleTx Limited, priority 2021, dated 2024)
Where two headings read alike, the source gives them in different places. Starred links: 1 amine or outer side, 2 acyl side, 3 side chain; linkers in the order of their positions; H or OH if unused. Positions of bridges follow the written chain, without caps; N, C: chain ends. Residues, ends and D or L forms follow the SMILES beside them. Chains are numbered I, II in the order given. X2 = O=C(CCCC(=O)NCCOCCOCCOCCOCCOCCOCCOCCOCCOCCOCCOCCOCCOCCOCCOCCOCCOCCOCCOCCOCCOCCOCCOCCn1cc(CCC(=O)[*:2])nn1)NCCOCCOCCOCCOCCOCCOCCOCCOCCOCCOCCOCCOCCOCCOCCOCCOCCOCCOCCOCCOCCOCCOCCOCCn1cc(CCC(=O)[*:1])nn1; TATA = O=C(CC[*:1])N1CN(C(=O)CC[*:2])CN(C(=O)CC[*:3])C1

Target: T1, human P-Selectin protein (Homo sapiens, UniProt P16109)
T1 sequence (P16109 42-830): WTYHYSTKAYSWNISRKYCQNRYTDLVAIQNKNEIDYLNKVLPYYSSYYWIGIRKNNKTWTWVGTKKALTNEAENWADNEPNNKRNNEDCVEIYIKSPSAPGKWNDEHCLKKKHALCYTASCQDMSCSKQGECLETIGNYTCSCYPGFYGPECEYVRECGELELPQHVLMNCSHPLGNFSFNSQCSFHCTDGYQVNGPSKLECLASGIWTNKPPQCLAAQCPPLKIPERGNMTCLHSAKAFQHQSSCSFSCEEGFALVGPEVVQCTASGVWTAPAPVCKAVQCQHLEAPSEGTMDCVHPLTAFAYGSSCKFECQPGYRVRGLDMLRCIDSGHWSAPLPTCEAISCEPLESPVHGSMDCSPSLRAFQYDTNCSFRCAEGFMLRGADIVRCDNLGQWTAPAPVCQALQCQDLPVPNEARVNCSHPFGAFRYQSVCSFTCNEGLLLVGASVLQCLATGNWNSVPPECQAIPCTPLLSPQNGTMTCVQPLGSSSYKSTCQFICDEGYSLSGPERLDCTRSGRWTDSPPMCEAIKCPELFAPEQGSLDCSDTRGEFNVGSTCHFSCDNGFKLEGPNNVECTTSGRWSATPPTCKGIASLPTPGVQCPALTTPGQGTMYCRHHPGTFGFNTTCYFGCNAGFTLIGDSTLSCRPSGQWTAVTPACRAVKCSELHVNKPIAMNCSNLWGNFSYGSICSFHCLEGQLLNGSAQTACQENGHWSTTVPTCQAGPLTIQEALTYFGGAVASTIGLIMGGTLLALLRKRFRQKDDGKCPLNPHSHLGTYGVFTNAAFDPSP
Assay: SPR binding assay (Biacore)
Details: recombinant biotinylated human P-Selectin, 25° C.
Procedure: Biacore experiments were performed to determine ka (M−1s−1), kd (s−1), KD (nM) values of monomeric peptides binding to human Selectin proteins. Recombinant biotinylated human P-Selectin protein was used. For analysis of binding, either a Biacore 3000 or 5200 instrument was used with a CMS sensor chip (GE Healthcare). For sensor chip surface preparation, streptavidin was immobilized on the chip using standard amine-coupling chemistry at 25° C. with HBS-N (10 mM HEPES, 0.15 M NaCl, pH 7.4) as the running buffer. The carboxymethyl dextran surface was activated with a 12 min injection of a 1:1 ratio of 0.4 M 1-ethyl-3-(3-dim ethyl aminopropyl) carbodiimide hydrochloride (EDC)/0.1 M N-hydroxy succinimide (NHS) at a flow rate of 10 μl/min. For capture of streptavidin, protein was diluted to 0.2 mg/ml in 10 mM sodium acetate (pH 4.5) and captured by injecting 70 μl onto the activated chip surface. Residual activated groups were blocked with a 7 min injection of 1 M ethanolamine (pH 8.5). Biotinylated protein stock was diluted 1:100 in HBS-N and captured on one flow cell at 5 μl/min to a level of 1000-1500 RU. Buffer was changed to PBS/0.05% Tween 20 and a dilution series of the peptides was prepared in this buffer with a final DMSO concentration of 0.5%. The top concentration of the analyte varied from 200 nM to 50 μM; depending on predicted affinity of the interaction. In all cases a titration was performed with either seven 2-fold dilutions or five 3-fold dilutions. The SPR analysis was run at 25° C. with a flow rate of 50-80 μl/min with 60 seconds association and a suitable disassociation period (100-900 seconds). Data were corrected for DMSO excluded volume effects. All data were double-referenced for blank injections and reference surface using standard processing procedures and data processing and kinetic fitting were performed using Scrubber software, version 2.0c (BioLogic Software). Data were fitted using mass transport model allowing for mass transport effects where appropriate.

## CSCC[C@@H]1NC(=O)[C@H](Cc2ccc(O)cc2)NC(=O)[C@@H](NC(=O)[C@H](C)NC(C)=O)CSCCC(=O)N2CN3CN(C2)C(=O)CCSC[C@H](NC(=O)[C@H](Cc2c[nH]c4ccccc24)NC(=O)[C@H](CCC(=O)O)NC1=O)C(=O)N[C@@H](CC(=O)O)C(=O)N[C@@H](C(C)C)C(=O)N[C@@H]([C@@H](C)O)C(=O)N[C@@H](CC(=O)O)C(=O)N[C@@H](Cc1ccc(O)cc1)C(=O)NCC(=O)N[C@H](C(=O)N[C@@H](CCCCNC(=O)CCc1cn(CCOCCOCCOCCOCCOCCOCCOCCOCCOCCOCCOCCOCCOCCOCCOCCOCCOCCOCCOCCOCCOCCOCCOCCNC(=O)CCCC(=O)NCCOCCOCCOCCOCCOCCOCCOCCOCCOCCOCCOCCOCCOCCOCCOCCOCCOCCOCCOCCOCCOCCOCCOCCn2cc(CCC(=O)NCCCC[C@H](NC(=O)[C@@H]4CSCCC(=O)N5CN6CN(C5)C(=O)CCSC[C@H](NC(=O)[C@H](Cc5c[nH]c7ccccc57)NC(=O)[C@H](CCC(=O)O)NC(=O)[C@H](CCSC)NC(=O)[C@H](Cc5ccc(O)cc5)NC(=O)[C@@H](NC(=O)[C@H](C)NC(C)=O)CSCCC6=O)C(=O)N[C@@H](CC(=O)O)C(=O)N[C@@H](C(C)C)C(=O)N[C@@H]([C@@H](C)O)C(=O)N[C@@H](CC(=O)O)C(=O)N[C@@H](Cc5ccc(O)cc5)C(=O)NCC(=O)N4)C(N)=O)nn2)nn1)C(N)=O)CSCCC3=O [BCY5457] (I: Ac-ACYMEWCDVTDYGCK-NH2 / II: Ac-ACYMEWCDVTDYGCK-NH2; linker I:2-I:7-I:14, II:2-II:7-II:14 via TATA; linker I:15-II:15 via X2)
Affinity KD determined by SPR
  Kd: 969 nM

## CSCC[C@@H]1NC(=O)[C@H](Cc2ccc(O)cc2)NC(=O)[C@@H](NC(=O)[C@H](C)NC(=O)CCc2cn(CCOCCOCCOCCOCCOCCOCCOCCOCCOCCOCCNC(=O)CCOCCN(CCOCCC(=O)NCCOCCOCCOCCOCCOCCOCCOCCOCCOCCOCCn3cc(CCC(=O)N[C@@H](C)C(=O)N[C@H]4CSCCC(=O)N5CN6CN(C5)C(=O)CCSC[C@H](NC(=O)[C@H](Cc5c[nH]c7ccccc57)NC(=O)[C@H](CCC(=O)O)NC(=O)[C@H](CCSC)NC(=O)[C@H](Cc5ccc(O)cc5)NC4=O)C(=O)N[C@@H](CC(=O)O)C(=O)N[C@@H](C(C)C)C(=O)N[C@@H]([C@@H](C)O)C(=O)N[C@@H](CC(=O)O)C(=O)N[C@@H](Cc4ccc(O)cc4)C(=O)NCC(=O)N[C@H](C(=O)N[C@@H](C)C(N)=O)CSCCC6=O)nn3)CCOCCC(=O)NCCOCCOCCOCCOCCOCCOCCOCCOCCOCCOCCn3cc(CCC(=O)N[C@@H](C)C(=O)N[C@H]4CSCCC(=O)N5CN6CN(C5)C(=O)CCSC[C@H](NC(=O)[C@H](Cc5c[nH]c7ccccc57)NC(=O)[C@H](CCC(=O)O)NC(=O)[C@H](CCSC)NC(=O)[C@H](Cc5ccc(O)cc5)NC4=O)C(=O)N[C@@H](CC(=O)O)C(=O)N[C@@H](C(C)C)C(=O)N[C@@H]([C@@H](C)O)C(=O)N[C@@H](CC(=O)O)C(=O)N[C@@H](Cc4ccc(O)cc4)C(=O)NCC(=O)N[C@H](C(=O)N[C@@H](C)C(N)=O)CSCCC6=O)nn3)nn2)CSCCC(=O)N2CN3CN(C2)C(=O)CCSC[C@H](NC(=O)[C@H](Cc2c[nH]c4ccccc24)NC(=O)[C@H](CCC(=O)O)NC1=O)C(=O)N[C@@H](CC(=O)O)C(=O)N[C@@H](C(C)C)C(=O)N[C@@H]([C@@H](C)O)C(=O)N[C@@H](CC(=O)O)C(=O)N[C@@H](Cc1ccc(O)cc1)C(=O)NCC(=O)N[C@H](C(=O)N[C@@H](C)C(N)=O)CSCCC3=O [BCY5458]
read-out: Affinity KD determined by SPR
  Kd: 400 nM

## CSCC[C@@H]1NC(=O)[C@H](Cc2ccc(O)cc2)NC(=O)[C@@H](NC(=O)[C@H](C)NC(C)=O)CSCCC(=O)N2CN3CN(C2)C(=O)CCSC[C@H](NC(=O)[C@H](Cc2c[nH]c4ccccc24)NC(=O)[C@H](CCC(=O)O)NC1=O)C(=O)N[C@@H](CC(=O)O)C(=O)N[C@@H](C(C)C)C(=O)N[C@@H]([C@@H](C)O)C(=O)N[C@@H](CC(=O)O)C(=O)N[C@@H](Cc1ccc(O)cc1)C(=O)NCC(=O)N[C@H](C(=O)N[C@@H](CCCCNC(=O)CCc1cn(CCOCCOCCOCCOCCOCCOCCOCCOCCOCCOCCNC(=O)CCOCC(COCCC(=O)NCCOCCOCCOCCOCCOCCOCCOCCOCCOCCOCCn2cc(CCC(=O)NCCCC[C@H](NC(=O)[C@@H]4CSCCC(=O)N5CN6CN(C5)C(=O)CCSC[C@H](NC(=O)[C@H](Cc5c[nH]c7ccccc57)NC(=O)[C@H](CCC(=O)O)NC(=O)[C@H](CCSC)NC(=O)[C@H](Cc5ccc(O)cc5)NC(=O)[C@@H](NC(=O)[C@H](C)NC(C)=O)CSCCC6=O)C(=O)N[C@@H](CC(=O)O)C(=O)N[C@@H](C(C)C)C(=O)N[C@@H]([C@@H](C)O)C(=O)N[C@@H](CC(=O)O)C(=O)N[C@@H](Cc5ccc(O)cc5)C(=O)NCC(=O)N4)C(N)=O)nn2)(COCCC(=O)NCCOCCOCCOCCOCCOCCOCCOCCOCCOCCOCCn2cc(CCC(=O)NCCCC[C@H](NC(=O)[C@@H]4CSCCC(=O)N5CN6CN(C5)C(=O)CCSC[C@H](NC(=O)[C@H](Cc5c[nH]c7ccccc57)NC(=O)[C@H](CCC(=O)O)NC(=O)[C@H](CCSC)NC(=O)[C@H](Cc5ccc(O)cc5)NC(=O)[C@@H](NC(=O)[C@H](C)NC(C)=O)CSCCC6=O)C(=O)N[C@@H](CC(=O)O)C(=O)N[C@@H](C(C)C)C(=O)N[C@@H]([C@@H](C)O)C(=O)N[C@@H](CC(=O)O)C(=O)N[C@@H](Cc5ccc(O)cc5)C(=O)NCC(=O)N4)C(N)=O)nn2)COCCC(=O)NCCOCCOCCOCCOCCOCCOCCOCCOCCOCCOCCn2cc(CCC(=O)NCCCC[C@H](NC(=O)[C@@H]4CSCCC(=O)N5CN6CN(C5)C(=O)CCSC[C@H](NC(=O)[C@H](Cc5c[nH]c7ccccc57)NC(=O)[C@H](CCC(=O)O)NC(=O)[C@H](CCSC)NC(=O)[C@H](Cc5ccc(O)cc5)NC(=O)[C@@H](NC(=O)[C@H](C)NC(C)=O)CSCCC6=O)C(=O)N[C@@H](CC(=O)O)C(=O)N[C@@H](C(C)C)C(=O)N[C@@H]([C@@H](C)O)C(=O)N[C@@H](CC(=O)O)C(=O)N[C@@H](Cc5ccc(O)cc5)C(=O)NCC(=O)N4)C(N)=O)nn2)nn1)C(N)=O)CSCCC3=O [BCY5464]
Affinity KD determined by SPR
  Kd: 37.3 nM
